From patent publication US20260108546A1 (ELI LILLY AND COMPANY, priority 2024, published 2026)
Structures can show the parent of a compound that is named as a salt.

Target: T1, hGIP-R (Homo sapiens, UniProt P48546)
T1 construct: expressed in transfected cells; host or cells: HEK-293 clonal cell lines
T1 sequence (P48546 22-466): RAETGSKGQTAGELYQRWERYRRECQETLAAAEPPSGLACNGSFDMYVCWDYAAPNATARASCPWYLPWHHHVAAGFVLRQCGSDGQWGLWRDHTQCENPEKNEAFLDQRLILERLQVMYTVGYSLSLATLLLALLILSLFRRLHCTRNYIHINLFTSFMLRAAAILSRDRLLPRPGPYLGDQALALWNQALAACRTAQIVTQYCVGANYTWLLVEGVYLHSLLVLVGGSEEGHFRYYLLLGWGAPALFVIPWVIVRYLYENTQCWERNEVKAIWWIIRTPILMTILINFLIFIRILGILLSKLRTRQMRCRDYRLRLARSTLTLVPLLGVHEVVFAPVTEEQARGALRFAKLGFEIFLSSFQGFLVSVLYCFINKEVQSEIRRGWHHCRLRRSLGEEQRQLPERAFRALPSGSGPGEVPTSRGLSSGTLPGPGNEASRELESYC
Test: Functional hGIP-R Assay (cAMP formation, HTRF)
Type: cell-based
Settings: for Emax: cAMP efficacy, percent of maximal response to GIP(1-42)OH, 37° C., 0.1% bovine casein, arithmetic mean ± SEM; for EC50: cAMP potency, HEK-293 cells expressing hGIP-R, incubated at 37° C. in the presence of 0.1% bovine casein, geometric mean, read-out: Human GIP-R EC50, nM (SEM, n)
Procedure, shortened: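 HEK-293 cells expressing hGIP-R were given a 20-point compound series in DMEM with 0.1% casein, 250 μM IBMX, 1% DMSO, 30 min at 37 °C. cAMP was read by HTRF against a standard curve, expressed as % of human GIP (1-42) OH maximum; EC50 and Emax came from four-parameter fits.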

Row | SMILES | Emax [%] | EC50 [nM]
1 | [2H]C([2H])([2H])n1cc(C[C@H](C(=O)NC(C)(C)Cn2nc(C(F)(F)F)cc2-c2ccc(C(C)(C)O)nc2)N2CC[C@@]3(C[C@@H]3c3ccc(-c4cnc5nn(CC)cc5c4)nc3C)C2=O)cn1 [Example 189, (R)-2-((1R,3R)-1-(6-(2-Ethyl-2H-pyrazolo[3,4-b]pyridin-5-yl)-2-methylpyridin-3-yl)-4-oxo-5-azaspiro[2.4]heptan-5-yl)-N-(1-(5-(6-(2-hydroxypropan-2-yl)pyridin-3-yl)-3-(trifluoromethyl)-1H-pyrazol-1-yl)-2-methylpropan-2-yl)-3-(1-(methyl-d3)-1H-pyrazol-4-yl)propanamide] | 61 ± 0.6 | 1.3
2 | [2H]C([2H])([2H])n1cc(C[C@H](C(=O)NC(C)(C)Cn2nc(C(F)(F)F)cc2-c2ccc(C(C)(C)O)nc2)N2CC[C@@]3(C[C@@H]3c3ccc(-c4cnc5nn(C6CC6)cc5c4)nc3C)C2=O)cn1 [Example 190, (R)-2-((1R,3R)-1-(6-(2-cyclopropyl-2H-pyrazolo[3,4-b]pyridin-5-yl)-2-methylpyridin-3-yl)-4-oxo-5-azaspiro[2.4]heptan-5-yl)-N-(1-(5-(6-(2-hydroxypropan-2-yl)pyridin-3-yl)-3-(trifluoromethyl)-1H-pyrazol-1-yl)-2-methylpropan-2-yl)-3-(1-(methyl-d3)-1H-pyrazol-4-yl)propanamide] | 80.2 ± 6.78 | 1.12
3 | [2H]C([2H])([2H])n1cc(C[C@H](C(=O)NC(C)(C)Cn2nc(C(F)(F)F)cc2-c2ccc(C(C)(C)O)nc2)N2CC[C@@]3(C[C@@H]3c3ccc(-c4cnc5nc(COC)cn5c4)nc3C3CC3)C2=O)cn1 [Example 192, (R)-2-((1R,3R)-1-(2-cyclopropyl-6-(2-(methoxymethyl)imidazo[1,2-a]pyrimidin-6-yl)pyridin-3-yl)-4-oxo-5-azaspiro[2.4]heptan-5-yl)-N-(1-(5-(6-(2-hydroxypropan-2-yl)pyridin-3-yl)-3-(trifluoromethyl)-1H-pyrazol-1-yl)-2-methylpropan-2-yl)-3-(1-(methyl-d3)-1H-pyrazol-4-yl)propanamide] | 129 | 0.0409
4 | Cc1nc(-c2cnc3nc(C4CC4)cn3c2)ccc1[C@H]1C[C@@]12CCN([C@H](Cc1cnn(C(F)F)c1)C(=O)NC(C)(C)Cn1nc(C(F)(F)F)cc1-c1cnc(C(C)(C)OP(=O)(O)O)nc1)C2=O [Example 196, 2-(5-(1-(2-((R)-2-((1R,3R)-1-(6-(2-Cyclopropylimidazo[1,2-a]pyrimidin-6-yl)-2-methylpyridin-3-yl)-4-oxo-5-azaspiro[2.4]heptan-5-yl)-3-(1-(difluoromethyl)-1H-pyrazol-4-yl)propanamido)-2-methylpropyl)-3-(trifluoromethyl)-1H-pyrazol-5-yl)pyrimidin-2-yl)propan-2-yl dihydrogen phosphate, ammonia salt] | 95.7 | 0.601
5 | Cc1nc(-c2cnc3nc(C4CC4)cn3c2)ccc1[C@H]1C[C@@]12CCN([C@H](Cc1cnn(C(F)F)c1)C(=O)NC(C)(C)Cn1nc(C(F)(F)F)cc1-c1ccc(C(C)(C)OP(=O)(O)O)nc1)C2=O [Example 197, 2-(5-(1-(2-((R)-2-((1R,3R)-1-(6-(2-Cyclopropylimidazo[1,2-a]pyrimidin-6-yl)-2-methylpyridin-3-yl)-4-oxo-5-azaspiro[2.4]heptan-5-yl)-3-(1-(difluoromethyl)-1H-pyrazol-4-yl)propanamido)-2-methylpropyl)-3-(trifluoromethyl)-1H-pyrazol-5-yl)pyridin-2-yl)propan-2-yl dihydrogen phosphate, ammonia salt] | 119 | 0.66

Now from value to compound:

Row | Emax [%] | EC50 [nM] | SMILES
6 | 84.6 ± 2.33 | 1.26 | [2H]C([2H])([2H])n1cc(C[C@H](C(=O)NC(C)(C)Cn2nc(C(F)(F)F)cc2-c2cnc(C(C)(C)O)nc2)N2CC[C@@]3(C[C@@H]3c3ccc(-c4cnc5nc(C)cn5c4)cc3Cl)C2=O)cn1 [Example 187, (R)-2-((1S,3R)-1-(2-chloro-4-(2-methylimidazo[1,2-a]pyrimidin-6-yl)phenyl)-4-oxo-5-azaspiro[2.4]heptan-5-yl)-N-(1-(5-(2-(2-hydroxypropan-2-yl)pyrimidin-5-yl)-3-(trifluoromethyl)-1H-pyrazol-1-yl)-2-methylpropan-2-yl)-3-(1-(methyl-d3)-1H-pyrazol-4-yl)propanamide]
7 | 110 ± 4.51 | 0.265 | [2H]C([2H])([2H])n1cc(C[C@H](C(=O)NC(C)(C)Cn2nc(C(F)(F)F)cc2-c2ccc(C(C)(C)O)nc2)N2CC[C@@]3(C[C@@H]3c3ccc(-c4cnc5nc(COC)cn5c4)cc3Cl)C2=O)cn1 [Example 188, (R)-2-((1S,3R)-1-(2-chloro-4-(2-(methoxymethyl)imidazo[1,2-a]pyrimidin-6-yl)phenyl)-4-oxo-5-azaspiro[2.4]heptan-5-yl)-N-(1-(5-(6-(2-hydroxypropan-2-yl)pyridin-3-yl)-3-(trifluoromethyl)-1H-pyrazol-1-yl)-2-methylpropan-2-yl)-3-(1-(methyl-d3)-1H-pyrazol-4-yl)propanamide]
8 | 78.5 ± 0.865 | 2.89 | [2H]C([2H])([2H])n1cc(C[C@H](C(=O)NC(C)(C)Cn2nc(C(F)(F)F)cc2-c2cnc(C(C)(C)O)nc2)N2CC[C@@]3(C[C@@H]3c3ccc(-c4cnc5nn(C6CC6)cc5c4)nc3C)C2=O)cn1 [Example 191, (R)-2-((1R,3R)-1-(6-(2-cyclopropyl-2H-pyrazolo[3,4-b]pyridin-5-yl)-2-methylpyridin-3-yl)-4-oxo-5-azaspiro[2.4]heptan-5-yl)-N-(1-(5-(2-(2-hydroxypropan-2-yl)pyrimidin-5-yl)-3-(trifluoromethyl)-1H-pyrazol-1-yl)-2-methylpropan-2-yl)-3-(1-(methyl-d3)-1H-pyrazol-4-yl)propanamide]
9 | 85.5 ± 0.117 | 1.33 | [2H]C([2H])([2H])n1cc(C[C@H](C(=O)NC(C)(C)Cn2nc(C(F)(F)F)cc2-c2cnc(C(C)(C)O)nc2)N2CC[C@@]3(C[C@@H]3c3ccc(-c4cnc5nn(C)cc5c4)cc3Cl)C2=O)cn1 [Example 193, (R)-2-((1S,3R)-1-(2-chloro-4-(2-methyl-2H-pyrazolo[3,4-b]pyridin-5-yl)phenyl)-4-oxo-5-azaspiro[2.4]heptan-5-yl)-N-(1-(5-(2-(2-hydroxypropan-2-yl)pyrimidin-5-yl)-3-(trifluoromethyl)-1H-pyrazol-1-yl)-2-methylpropan-2-yl)-3-(1-(methyl-d3)-1H-pyrazol-4-yl)propanamide]
10 | 64.1 ± 0.489 | 0.567 | [2H]C([2H])([2H])n1cc(C[C@H](C(=O)NC(C)(C)Cn2nc(C(F)(F)F)cc2-c2ccc(C(C)(C)O)nc2)N2CC[C@@]3(C[C@@H]3c3ccc(-c4cnc5nn(C)cc5c4)cc3Cl)C2=O)cn1 [Example 194, (R)-2-((1S,3R)-1-(2-chloro-4-(2-methyl-2H-pyrazolo[3,4-b]pyridin-5-yl)phenyl)-4-oxo-5-azaspiro[2.4]heptan-5-yl)-N-(1-(5-(6-(2-hydroxypropan-2-yl)pyridin-3-yl)-3-(trifluoromethyl)-1H-pyrazol-1-yl)-2-methylpropan-2-yl)-3-(1-(methyl-d3)-1H-pyrazol-4-yl)propanamide]
11 | 88.8 | 2.36 | [2H]C([2H])([2H])n1cc(C[C@H](C(=O)NC(C)(C)Cn2nc(C(F)(F)F)cc2-c2ccc(C(C)(C)OP(=O)(O)O)nc2)N2CC[C@@]3(C[C@@H]3c3ccc(-c4cnc5nn(C)cc5c4)cc3Cl)C2=O)cn1 [Example 195, 2-(5-(1-(2-((R)-2-((1S,3R)-1-(2-Chloro-4-(2-methyl-2H-pyrazolo[3,4-b]pyridin-5-yl)phenyl)-4-oxo-5-azaspiro[2.4]heptan-5-yl)-3-(1-(methyl-d3)-1H-pyrazol-4-yl)propanamido)-2-methylpropyl)-3-(trifluoromethyl)-1H-pyrazol-5-yl)pyridin-2-yl)propan-2-yl dihydrogen phosphate, ammonia salt]
12 | 90.3 | 1.81 | [2H]C([2H])([2H])n1cc(C[C@H](C(=O)NC(C)(C)Cn2nc(C(F)(F)F)cc2-c2cnc(C(C)(C)OP(=O)(O)O)nc2)N2CC[C@@]3(C[C@@H]3c3ccc(-c4cnc5nn(C)cc5c4)cc3Cl)C2=O)cn1 [Example 198, 2-(5-(1-(2-((R)-2-((1S,3R)-1-(2-Chloro-4-(2-methyl-2H-pyrazolo[3,4-b]pyridin-5-yl)phenyl)-4-oxo-5-azaspiro[2.4]heptan-5-yl)-3-(1-(methyl-d3)-1H-pyrazol-4-yl)propanamido)-2-methylpropyl)-3-(trifluoromethyl)-1H-pyrazol-5-yl)pyrimidin-2-yl)propan-2-yl dihydrogen phosphate, ammonia salt]
